Here are results for 16 compounds from PubChem BioAssay (NCI).

Common to all, as to assay: NCI anticancer screen, dose series, 48 h
Assay [1] concerns A549 NSCLC.
Assay [2] has as its system CCRF-CEM leukemia.
Assay [3] relates to EKVX NSCLC.
Assay [4] relates to HOP-62 NSCLC.
Assay [5] deals with IGROV1 ovarian.
For assay [6], the system named is LOX IMVI melanoma.
The test system of assay [7] is MDA-MB-435.
The test system of assay [8] is NCI-H226 lung.
Assay [9] has as its system NCI-H460 lung.
Assay [10] relates to NCI-H522 lung.
The test system of assay [11] is NCI/ADR-RES ovarian.
The subject of assay [12] is OVCAR-5 ovarian.
The subject of assay [13] is OVCAR-8 ovarian.
Assay [14] concerns SF-268 CNS.
Assay [15] has as its system SK-MEL-28 melanoma.
Assay [16] has as its system SK-OV-3 ovarian.
Assay [17] deals with U251 CNS.
Assay [18] has as its system UACC-62 melanoma.
In assay [19] the test system is HL-60(TB) leukemia.

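96-well plates; 48 h exposure; 5 concentrations. Endpoints by linear interpolation between flanking doses. Not reached: highest tested concentration assigned. TGI marks complete inhibition of growth.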 Where a SMILES comes first, the peptide text is derived from it. The star is where a group is joined. Cbz = O=C(OCc1ccccc1)*

As to `CC(C)=CCC/C(C)=C/CC/C(C)=C/CC(CO)N(C)CC/C=C(\C)CCC=C(C)C` (centres undefined), the TGI is 17.5 µM in [1]; above 25.2 µM in [2]; 23.4 µM in assay [3]; 15 µM in [4]; 16 µM in assay [5]; 7.56 µM in assay [6]. The TGI was 13.2 µM in assay [7]; 28.4 µM in [8]; 15.8 µM in assay [9]; 3.89 µM in assay [10]; 16.4 µM in [11]; 21.2 µM in assay [12]. Further, the TGI was found to be 20.2 µM in [13]; 26.7 µM in [14]; 14.4 µM in assay [15]; 28.9 µM in assay [16]; 14.5 µM in assay [17]; 29.9 µM in assay [18].
As to `CNCCCn1c2ccccc2c2c3c(c(-c4ccsc4)cc21)C(=O)NC3=O`, the TGI in [1] amounted to 2.76 µM; in [2], 3.24 µM; in [3] it was 3.75 µM; in assay [19] it was 4 µM; in assay [4] it was 2.24 µM; in assay [5] it was 2.4 µM. The TGI in assay [7] stood at 2.35 µM; in [8], 23.6 µM; in assay [11], 2.19 µM; in assay [12], 3.16 µM; in assay [13], 2.07 µM; in assay [14], 4 µM. Further, the values for the TGI in assay [15], in assay [16] and in assay [17] were 3.36 µM, 2.63 µM and 3.71 µM, respectively.
As to `CCCC(=O)N1CCN(c2ccc3c(c2)OC(C)O3)CC1` (centres undefined), the TGI in [1], in assay [2], in assay [3], in assay [4], in assay [5] and in [7] was above 100 µM each time. Moreover, the TGI in [8], in assay [9], in assay [10], in assay [11], in assay [12] and in assay [13] was above 100 µM in each case. The TGI in assay [14], in [15], in assay [16], in assay [17] and in assay [18] was above 100 µM in each case.
In the case of `Nc1ccn([C@H]2CO[C@@H](CO)[C@@H]2O)c(=O)n1`, the TGI in assay [2], in [3], in [4], in assay [5], in assay [6] and in assay [7] was above 100 µM each time. Moreover, the TGI in [8], in assay [9], in assay [11], in [12], in assay [14] and in [15] was above 100 µM in each case. The TGI in assay [16], in assay [17] and in [18] was above 100 µM in each case.
`Cn1c2ccccc2c(=O)c2cccc(C(=O)NC(CS)C(=O)O)c21` (centres undefined): the TGI in [1] is above 100 µM; in [3], above 100 µM; in assay [19] it was 38.9 µM; in assay [4] it was above 100 µM; in assay [5] it was above 100 µM; in [6], above 100 µM. Also, the TGI in assay [7], in [8], in assay [9], in assay [11], in [12] and in assay [13] was above 100 µM each time. The TGI in assay [14], in assay [15], in assay [16], in [17] and in assay [18] was above 100 µM throughout.
Take `CC(C)(C)OC/C=C(/CO)[C@@H]1C=C[C@H](O)C1`: the TGI in [1], in assay [2], in assay [3], in assay [4], in [7] and in assay [8] was above 100 µM each time. The TGI in assay [9], in assay [11], in [12], in assay [14], in assay [15] and in assay [16] was above 100 µM each time. Moreover, the TGI in [17] and in assay [18] was above 100 µM throughout.
As to `COC1=C(Br)[C@H](O)[C@@]2(C=C1Br)CC(C(=O)NCCCOc1c(Br)cc(C(O)CNC(C)=O)cc1Br)=NO2` (some centres undefined), the TGI in assay [1], in assay [2], in assay [19], in assay [4], in [5] and in assay [6] was above 10 µM throughout. The TGI in [7] was 5.12 µM; in assay [8], above 10 µM; in assay [9] it was above 10 µM; in [10], above 10 µM; in assay [11], above 10 µM; in assay [12], above 10 µM. Further, the TGI in assay [13], in assay [14], in [15], in [16], in assay [17] and in assay [18] was above 10 µM in each case.
As for `CC(C)C(C/C=C1\CC(CO)(COC(=O)C(C)(C)C)OC1=O)C(C)C` (centres undefined), the TGI is 16.6 µM in assay [1]; 42.7 µM in assay [2]; 24.8 µM in [3]; 20.4 µM in [4]; 29.4 µM in assay [5]; 17.7 µM in assay [6]. Also, the TGI was 25.3 µM in assay [7]; 19.8 µM in assay [8]; 31 µM in [9]; 29 µM in assay [10]; 32.4 µM in assay [11]; 25.4 µM in assay [12]. The TGI was found to be 31.1 µM in [13]; 27.7 µM in [14]; 26.4 µM in assay [15]; 29 µM in [16]; 29.8 µM in assay [17]; 31.3 µM in assay [18].
With `COC(=O)NC(C(F)(F)F)(C(F)(F)F)P1(=O)OCCCO1`, the TGI in assay [1] is above 100 µM; in assay [2], above 100 µM; in assay [19] it was 51.1 µM; in assay [4] it was 58.6 µM; in [5], 68.8 µM; in [6] it was 58.4 µM. Further, the TGI in [7] is 46.1 µM; in assay [8] it was 98.7 µM; in assay [9], 84.6 µM; in [10] it was 34 µM; in assay [11], above 100 µM; in [12], 82.1 µM. Also, the TGI is 83.3 µM in assay [13]; 73.8 µM in assay [14]; above 100 µM in [15]; 55.7 µM in assay [16]; 29.8 µM in assay [17]; 33.2 µM in [18].
In the case of `CCOC(=O)[C@H](C)OC(=O)[C@@](C)(NC(=O)c1ccccc1C(=O)OC)[C@@H]1NC=C(C(=O)OC)CS1`, the TGI in [1] was above 100 µM; in assay [2], 63.9 µM; in [3] it was above 100 µM; in assay [4] it was above 100 µM; in assay [5], above 100 µM; in [7] it was 85.6 µM. Also, the TGI in assay [8], in [9], in assay [10], in [11], in assay [12] and in assay [13] was above 100 µM each time. Moreover, the TGI in assay [14], in [15], in assay [16], in [17] and in assay [18] was above 100 µM in each case.
`CC1(C)OC[C@@H]([C@H](O)C2C=CC(=O)S2)O1` (some centres undefined): the TGI is above 100 µM in assay [1]; 97.9 µM in [2]; above 100 µM in assay [3]; above 100 µM in assay [19]; above 100 µM in assay [4]; 31.7 µM in assay [6]. The TGI in assay [7] was above 100 µM; in [8], above 100 µM; in assay [9], above 100 µM; in assay [11] it was 83.6 µM; in assay [12] it was above 100 µM; in assay [13] it was 56.4 µM. In addition, the TGI in assay [14] is 38.8 µM; in assay [16], above 100 µM; in assay [17], 90.4 µM; in assay [18], 35.9 µM.
For the compound `CC(NC(=O)C(NC(=O)OCc1ccccc1)C(C)C)C(=O)NCC(=O)O` (stereo not drawn) (Cbz-Val-Ala-Gly-OH; configuration not given here), the TGI in [1], in [3], in [4], in [5], in [7] and in [8] was above 100 µM throughout. In addition, the TGI in assay [9], in [10], in [11], in [12], in assay [13] and in [14] was above 100 µM throughout. Moreover, the TGI in assay [15], in assay [16], in [17] and in [18] was above 100 µM each time.
As for `COC(=O)c1nsc(OC)c1Cl`, the TGI in assay [1], in assay [2], in assay [3], in assay [19], in assay [4] and in assay [5] was above 100 µM each time. Also, the TGI in assay [6], in assay [7], in assay [8], in assay [11], in [12] and in assay [13] was above 100 µM in each case. Besides, the TGI in [14], in [15], in [16], in assay [17] and in assay [18] was above 100 µM each time.
With `O=C1C=C(NCCOCCO)C(=O)c2c(O)ccc(O)c21`, the TGI in assay [1] is 73.6 µM; in [2], 76.2 µM; in assay [19], 40.4 µM; in assay [4] it was above 100 µM; in assay [5], above 100 µM; in [6] it was 30 µM. In addition, the TGI is 32.6 µM in assay [7]; above 100 µM in [8]; above 100 µM in assay [9]; 47.1 µM in [10]; 65.7 µM in [11]; above 100 µM in assay [12]. For the same compound, the TGI in assay [13] was 86.5 µM; in [14] it was above 100 µM; in assay [15], above 100 µM; in [16] it was above 100 µM; in [17] it was 77.9 µM; in assay [18], 28.2 µM.
As to `CC(=O)OCC1OC(n2c(C)cc(C)c(C#N)c2=S)C(OC(C)=O)C(OC(C)=O)C1OC(C)=O` (centres undefined), the TGI in assay [1], in assay [2], in assay [19], in [4], in assay [5] and in [6] was above 100 µM throughout. In addition, the TGI in assay [7], in [8], in assay [9], in [10], in assay [11] and in assay [12] was above 100 µM in each case. For the same compound, the TGI in [13], in [14], in assay [15], in assay [17] and in assay [18] was above 100 µM throughout.
With `[N-]=[N+]=NCc1nc(N)c2c3c(sc2n1)CCCC3`, the TGI in assay [1] was 36.6 µM; in [2] it was above 100 µM; in [3], 4.95 µM; in assay [19] it was above 100 µM; in assay [4] it was 18.3 µM; in assay [5] it was 2.92 µM. In addition, the TGI in assay [6] is 2.13 µM; in assay [7] it was 32 µM; in assay [8] it was 5.97 µM; in [9] it was 13.6 µM; in assay [11], above 22.2 µM; in [12] it was 10.1 µM. Further, the TGI in assay [13] is 3.72 µM; in assay [14], 6.23 µM; in assay [15], 36.3 µM; in [16], 24.1 µM; in assay [17], above 25.3 µM; in assay [18] it was 23.6 µM.
